Consider one molecule from patent publication US20230414626A1, “INDUCTION OF FERROPTOSIS FOR CANCER THERAPY” (Memorial Sloan Kettering Cancer Center, priority 2020, published 2023).

Structures are written as SMILES.

The assay relates to SREBP1 (SREBP1m). Briefly: Western blot of mature SREBP1. Type of assay: cell-based, human. The settings on record: RSL3-resistant cancer cells (BT474, MDA-MB-453, MCF7); CCI-779 0.5 μM. Here is the method: FIG. 4 A-F. mTORC1 activation suppresses ferroptosis by upregulating SREBP1. (A) BT474 and MDA-MB-453 cells were treated as indicated. RSL3, 0.5 μM; CCI-779, 0.5 μM. Cell lysates were collected after 8 h and 24 h of treatment for BT474 cells and MDA-MB-453 cells, respectively, for western blot detecting […], total S6K, unprocessed SREBP1 (SREBP1(p)) and processed, mature SREBP1 (SREBP1(m)). (B) Cells were treated as indicated. RSL3, 0.5 μM for BT474 cells and 1 μM for MDA-MB-453 cells; Fer-1, 1 μM. (C) Cells were treated as in panel B. Lipid peroxidation was measured. (D) 3D spheroids derived from BT474 cells harboring control or SREBF1 sgRNA were treated as indicated. CCI-779, 0.5 μM; RSL3, 0.5 μM; Fer-1, 1 μM. Top, cell death stained by Sytox Green (scale bar, 100 μm). Bottom, cell viability. (E) SREBP1m was overexpressed in BT474 cells and determined by western blot. Cells were treated as indicated. RSL3, 0.5 μM; CCI-779, 0.5 μM. Cell death was measured (bottom panel). (F) 3D spheroids derived from BT474 cells were treated as indicated. RSL3, 0.5 μM; CCI-779, 0.5 μM; Fer-1, 1 μM. Top, cell death stained by Sytox Green (scale bar, 100 m). […]
FIG. 9 A-F. SREBP1 protects cells from ferroptosis. […] (C) Efficiency of SREBF1 Knockout in BT474, MDA-MB-453, and MCF7 cells was monitored by western blot. […] (F) SREBP1m was overexpressed in MCF7, MDA-MB-453 and A549 cells and determined by western blot. […]
(In general: Immunoblotting shows a protein as a band on a membrane.)

As to `CO[C@H]1C[C@@H]2CC[C@@H](C)[C@@](O)(O2)C(=O)C(=O)N2CCCC[C@H]2C(=O)O[C@H]([C@H](C)C[C@@H]2CC[C@@H](OC(=O)C(C)(CO)CO)[C@H](OC)C2)CC(=O)[C@H](C)/C=C(\C)[C@@H](O)[C@@H](OC)C(=O)[C@H](C)C[C@H](C)/C=C/C=C/C=C/1C` [CCI-779, Temsirolimus], the “level of the mature form of SREBP1 (SREBP1m)” value is on record as “decreased”.
